Assay results: paper PMC7026387, “Improved Prediction of Aqueous Solubility of Novel Compounds by Going Deeper With Deep Learning” (Frontiers in Oncology, 2020)
Converted amounts (≈) assume the structure as drawn. Like-named read-outs stand apart in the source and are kept apart here.

Assays:
[1] = Aqueous solubility (pH 7) by modified shake flask method and RP-HPLC; type: physicochemical
Experimental: In one of our drugs discovering projects toward antitumor therapeutics, a series of novel FLT3 inhibitors were designed and synthesized using the structure-based drug design methods. The aqueous solubilities (pH = 7) of these compounds were measured using the modified shake flask method and RP-HPLC ([34], [35]). Each compound was added into a 1.5 mL Eppendorf tube containing Milli-Q water (1 mL) to form the precipitates at 25°C. Then the mixture was subjected to a solubility-equilibrium stage. The tube was shook at 300 rpm at 25°C for 24 h. The precipitate was separated by centrifugation at 23,000 g for 20 min. Subsequently, 0.25 mL of supernatant was transferred into a 1 mL Eppendorf tube, and it was centrifuged again with the same settings used above. The supernatant was then used for HPLC analysis. An Agilent 1260 Infinity LC system (Agilent Technologies, Inc., Santa Clara, California) was used. For HPLC conditions, a ZORBAX SB-C18 column (5 μM, 4.6 × 150 mm; Agilent), a flow rate of 0.8 mL/min for mobile phase, a UV wavelength of 250 nm and a column temperature of 30°C were used. The sample was injected automatically by a mechanical arm and separated by a constant mixture of methanol/PBS (pH 5.6), 90:10. For each compound, a standard curve consisting of four concentrations was established. The synthetic methods of all but compound SC5 and SC6 have been published in literatures ([36]–[39]). The synthetic methods of SC5 and SC6 are described in Supplementary Method 1.

[2] = cited from earlier work; for Experimental S value: room-temperature, around pH 7.0; for LogS_exp: experimental aqueous solubility: literature S values converted to mol/L and transformed into logS
[3] = Milli-Q water, pH 7, 25°C, 24 h shaking, RP-HPLC, read-out: Experimental S value
[4] = by HPLC, ref Thompson et al., 2018
[5] = method NA, ref Hamdy et al., 2017

For `Cc1nc(Nc2c[nH]nc2C(=O)Nc2ccc(CN3CCOCC3)cc2)c2cc(C(C)C)sc2n1` [SC3], the solubility thermodynamic at 24 h [1, 3] was 60.7 µg/mL (≈ 124 µM).
With `N#CCC(=O)c1cc(C#N)cs1` [SC1] the solubility thermodynamic at 24 h [1, 3] was 30.7 µg/mL (≈ 174 µM).
In the case of `O=[N+]([O-])c1cn2c(n1)OC[C@H](Oc1ccc(C(F)(F)F)cn1)C2` [NC7], the “Experimental S value” [2, 4] is listed as 110 µg/mL.
For `COC1=C/C(=N/NC(=O)c2ccncc2)C[C@@H](C)[C@]12Oc1c(Cl)c(OC)cc(OC)c1C2=O` (relative stereo) [NC4], the “LogS_exp: experimental aqueous solubility” value [2] is listed as -4.576 logarithmic units of mol/L and the “Experimental S value” [2, 5] is listed as 12.53 µg/mL.
In the case of `Cc1nc2c(c(-c3nc(Nc4c[nH]nc4C(=O)Nc4ccc(N5CCNCC5)cc4)c4ccsc4n3)n1)CCCC2` [SC4], the “Experimental S value” ([1]; Milli-Q water, pH 7, 25°C, 24 h shaking, RP-HPLC) is reported as 0.10491 mg/mL and the solubility thermodynamic at 24 h [1, 3] is reported as 105 µg/mL (≈ 185 µM).
With `COc1ccc(Oc2ccc3c(NC(=O)c4ccc(NC5CCN(C)CC5)cc4)n[nH]c3c2)cc1` [SC5] the melting point was 236 to 238 °C, the “Experimental S value” ([1]; 24 h, pH 7) was 0.019714 mg/mL and the solubility thermodynamic at 24 h ([1]; pH 7, water) was 19.7 µg/mL (≈ 41.8 µM).
For `CN(Cc1ccc(C(F)(F)F)cc1)c1cc(C(=O)Nc2ncn(C)n2)ncn1` [NC2], the “LogS_exp: experimental aqueous solubility” value [2] is listed as -3.762 logarithmic units of mol/L and the “Experimental S value” ([2]; method NA, ref Wilson et al., 2017) is listed as 173 µM.
In the case of `O=C(/C=C(/C=C/c1cccnc1)NCCO)/C=C/c1cccnc1` [NC6], the “Experimental S value” ([2]; by shake flask method and colorimetry, ref Theppawong et al., 2018) is given as 4350.8 µM and the “LogS_exp: experimental aqueous solubility” value [2] is given as -2.361 logarithmic units of mol/L.
For `COc1cc(OC)c2c(c1Cl)O[C@]1(C2=O)C(OCc2ccccc2)=C/C(=N\OCC(=O)O)C[C@H]1C` (relative stereo) [NC5], the “LogS_exp: experimental aqueous solubility” value [2] is given as -4.254 logarithmic units of mol/L and the “Experimental S value” [2, 5] is given as 27.94 µg/mL.
With `N#Cc1csc(-c2cc(N)[nH]n2)c1` [SC2] the solubility thermodynamic at 24 h ([1]; pH 7, water) was 31.7 µg/mL (≈ 167 µM).
In the case of `O=C(Nc1ccccc1OC(F)(F)F)N[C@@H]1COc2nc([N+](=O)[O-])cn2C1` [NC3], the “Experimental S value” [2, 4] is listed as 22 µg/mL and the “LogS_exp: experimental aqueous solubility” value [2] is listed as -4.246 logarithmic units of mol/L.
In the case of `CN1CCC(Nc2ccc(C(=O)Nc3n[nH]c4cc(Oc5ccccc5)ccc34)cc2)CC1` [SC6], the solubility thermodynamic at 24 h ([1]; pH 7, water) is reported as under 10 µg/mL.
